Source: US4300557A, “Method for treating intraocular malignancies” (The United States of America as represented by the …, priority 1980, dated 1981)
Values joined by “and” are separate entries in the source; they are usually repeats but may differ in a detail not shown here. Equal entries are not always repeated. Where two headings read alike, the source gives them in different places.

How the values were obtained:
[1] = cited from earlier work
[2] = Stability of BCNU in aqueous solution (absorbance at 232 nm); type: physicochemical
Text: The decomposition of BCNU in water and in 1% aqueous ethanol was followed by measuring the characteristic BCNU absorbance maximum at 232 nm, using a Beckman DK-2A spectrophotometer. A second maximum that appeared at 190 nm and increased during decomposition was not a reliable indicator of the drug's breakdown.

[3] = ethanol in silicone rubber capsule, Schmidt et al.; cited from earlier work
Brown-Pearce epithelioma [4] = test: Histopathological observations of enucleated rabbit eyes with Brown-Pearce epithelioma; type: in vivo, New Zealand female albino rabbits
Text: (§1) Preoperative examination of 28 eyes in 14 New Zealand femal albino rabbits weighing 2.0 to 2.5 kg included biomicroscopy, tonotometry, and indirect ophthalmoscopy. All animals had normal eyes. Both eyes of each animal were inoculated intracamerally with Brown-Pearce epithelioma tissue by the technique at 993 of Liu et al., Invest. Ophthalmol Visual Sci., Vol. 17 (1978).
(§2) Three days after tumor tissue implantation, a silicone device described in Example 1 was implanted episclerally in each eye. Animals were anesthetized with sodium pentobarbital 24 mg/kg body weight administered intravenously. After routine preparation of the rabbit and the eyes, a pocket beneath the conjunctiva and Tenon's capsule was made in the upper temporal quadrant of the eye. The silicone device was inserted into the pocket but the small tube remained accessible to permit injection of test substance. Two 7-0 silk sutures were applied on both shoulders of the silicone device and on the episcleral tissue at the pars plana to hold the device in position. The conjunctiva was closed with two 7-0 silk sutures. Then 0.15 ml of the BCNU solution or the diluent (control) was injected into the device with a tuberculin syringe and a 30-gauge needle through the tube which was outside the closed conjunctiva as shown in FIG. 5. The injecting tube was fixed on the upper fornix.
Seven animals (Group 1A) received 3.0 mg of BCNU in 0.15 ml of sesame oil in one eye on the third, sixth, and ninth days after tumor implantation (total dose 9.0 mg). Three animals (Group 1B) received 12.0 mg of BCNU in 0.15 ml of sesame oil on the same schedule (total dose 36.0/mg). Four animals (Group II) received 13.0 mg of BCNU in pure ethanol on the third and sixth days after tumor implantation (total dose 26.0 mg). The fellow eyes served as controls and received diluent only.
(§3) Ocular examinations were made on alternate days during the 20 days following tumor implantation; at that time all eyes were enucleated. The effectiveness of treatment was measured by (1) comparing the extent of tumor growth in the anterior chamber of treated and control eyes, (2) noting the occurrence of distortion and perforation of the globe due to tumor growth, (3) weighing all eyes following enucleation, and (4) comparing the histopathologic changes in the eyes.
The enucleated eyes were fixed in 10% buffered formalin in preparation for histopathological examination. A sagittal section on either side of the optic nerve was made. Pupil-optic nerve sections and the two calottes were processed routinely for histologic evaluation, using hematoxyline and eosin (H&E) stain. The eyes were imbedded in paraffin and cut in sections 6μ thick for light microscopy. Every fifth section was stained. About 50 sections from each eye were examined.

Brown-Pearce epithelioma [5] = test: In vivo testing in rabbits with intracameral Brown-Pearce epithelioma, clinical results; parameters: species or system New Zealand female albino rabbits; reduction in tumor growth: dose or concentration left out as unconfirmed; conditions: for Day Tumor Destroyed Whole Eye, Treated Eye: * eye not yet destroyed by day of enucleation
Text: as §1
as §2, with “Then 0.15 ml of the BCNU solution or the diluent (control) was injected into the device with a tuberculin syringe and a 30-gauge needle through the tube which was outside the closed conjunctiva as shown in FIG.” left out
Seven animals (Group 1A) received 3.0 mg of BCNU in 0.15 ml of sesame oil in one eye on the third, sixth, and ninth days after tumor implantation (total dose 9.0 mg). Three animals (Group 1B) received 12.0 mg of BCNU in 0.15 ml of sesame oil on the same schedule (total dose 36.0/mg). […] The fellow eyes served as controls and received diluent only.
as §3
Clinical results, tabulated below, indicate the day on which the tumor occupied the anterior chamber and the weight of the enucleated eyes. The first day was the day on which tumor tissue was implanted.

[6] = Solubility and stability of BCNU in vehicles (statements); type: physicochemical
[7] = Group IA: 3.0 mg BCNU in sesame oil, days 3, 6 and 9
[8] = Group IB: 12.0 mg BCNU in sesame oil, days 3, 6 and 9
[9] = Group II: 13.0 mg BCNU in pure ethanol, days 3 and 6

O=NN(CCCl)C(=O)NCCCl [BCNU, 1,3-bis-(2-chloroethyl)-1-nitrosourea]
reported half-life of BCNU in water ([1]; Montgomery et al., J. Med. Chem. 1967): 5.08 h | reported half-life of BCNU in water ([1]; Schmidt et al., supra): 2.33 h | Decomposition of BCNU in water ([1]; in water, of the order of): 140 to 305 min | half-life ([2]; 1% ethanol, 1% ethanol solution, of the order of, read-out: Decomposition of BCNU in 1% ethanol solution): ~4.1 h | half-life ([2]; 1% ethanol, 37° C., read-out: half-life of BCNU in 1% ethanol): 4.1 h | half-life ([2]; water, 37° C., read-out: half-life of BCNU in water): 3.83 h | decrease in BCNU concentration in the dialysate [3]: rapid decrease in BCNU concentration in the dialysate | infiltration and extrascleral extension, histology (Brown-Pearce epithelioma [4]; Group I, BCNU in sesame oil): The inner scleral and corneal lamellae were infiltrated with tumor; no extrascleral extension was noted | mitotic index (Brown-Pearce epithelioma [4]; Group I, BCNU in sesame oil): remained high | necrosis (Brown-Pearce epithelioma [4]; Group I, BCNU in sesame oil): necrosis was prominent | tumor extent, histology (Brown-Pearce epithelioma [4]; Group I, BCNU in sesame oil): Tumor growth tended to be limited to the anterior segment, but in some instances replaced the iris and ciliary body | intraocular architecture and invasion of the cornea or sclera (Brown-Pearce epithelioma [4]; Group II, BCNU in pure ethanol): Normal intraocular architecture was maintained, with no evidence of invasion of the cornea or sclera | mitotic index (Brown-Pearce epithelioma [4]; Group II, BCNU in pure ethanol): 6 to 8 per high power field | necrosis versus control eyes (Brown-Pearce epithelioma [4]; Group II, BCNU in pure ethanol): less prominent than in control eyes | reduction of tumor growth, histology (Brown-Pearce epithelioma [4]; Group II, BCNU in pure ethanol): most significant reduction of tumor growth | tumor extent, histology (Brown-Pearce epithelioma [4]; Group II, BCNU in pure ethanol): Only small foci of tumor, limited to the anterior segment | tumor nodules in iris and ciliary body, histology (Brown-Pearce epithelioma [4]; Group II, BCNU in pure ethanol): small nodules of tumor were found in the iris stroma and iris root with occasional involvement of the ciliary body | histological difference between Group IA and Group IB eyes (Brown-Pearce epithelioma [4]; total 9.0 mg versus total 36.0 mg BCNU in sesame oil): no observable difference histologically | reduction of tumor growth (Brown-Pearce epithelioma [5]; 3.0 or 12.0 mg BCNU in 0.15 ml sesame oil, days 3, 6 and 9): Significant reduction of tumor growth | therapeutic results (Brown-Pearce epithelioma [5]; BCNU in absolute ethanol, silicone balloons 0.1-0.2 mm wall): good therapeutic results | Aver. wt of eyes after enucleation, treated eye (Brown-Pearce epithelioma [5]; Group I (IA and IB), sesame oil, 10 treated eyes): 5.2 g | growth of the implanted tumor tissue in the anterior chamber (Brown-Pearce epithelioma [5]; Group I, BCNU in sesame oil): slowed in all 10 eyes | Aver. wt of eyes after enucleation, treated eye (Brown-Pearce epithelioma [5]; Group IA, 3.0 mg in sesame oil): 5.7 g | eyes retaining normal shape and size without distortion for 15 days (Brown-Pearce epithelioma [5]; Group IA, three doses of 3.0 mg in sesame oil, 15 days after tumor implantation): six eyes of the seven | Day Tumor Occupied Anterior Chamber, Treated Eye (Brown-Pearce epithelioma [5]; [7]): 13 days and 14 days and 12 days and 18 days | Day Tumor Destroyed Whole Eye, Treated Eye (Brown-Pearce epithelioma [5]; [7]): 18 days and 19 days and 17 days and 16 days and > 18 days and 15 days | Aver. wt of eyes after enucleation, treated eye (Brown-Pearce epithelioma [5]; Group IB, 12.0 mg in sesame oil): 4.1 g | eyes retaining normal shape and size without distortion for 19 days (Brown-Pearce epithelioma [5]; Group IB, three doses of 12.0 mg in sesame oil, 19 days after tumor implantation): Two eyes of the three | Day Tumor Occupied Anterior Chamber, Treated Eye (Brown-Pearce epithelioma [5]; [8]): 20 days and 17 days and 11 days | Weight of Eyes After Enucleation, Treated Eye (Brown-Pearce epithelioma [5]; [8]): 3.5 g and 5.2 g | Day Tumor Destroyed Whole Eye, Treated Eye (Brown-Pearce epithelioma [5]; [8]): > 20 days and 20 days and 17 days | average weight of the four treated eyes after enucleation (Brown-Pearce epithelioma [5]; Group II, BCNU in pure ethanol): 3.1 gm | response of treated eyes (Brown-Pearce epithelioma [5]; Group II, BCNU in pure ethanol): Each of the four eyes treated showed good response | tumor tissue growth in the anterior chamber on the fifteenth day (Brown-Pearce epithelioma [5]; Group II, BCNU in pure ethanol, day 15): almost completely arrested in three of the four treated eyes | eyes retaining normal shape and size on the twentieth day (Brown-Pearce epithelioma [5]; Group II, BCNU in pure ethanol, day 20): all four treated eyes retained their normal shape and size | Aver. wt of eyes after enucleation, treated eye (Brown-Pearce epithelioma [5]; Group II, pure ethanol): 3.1 g | Day Tumor Occupied Anterior Chamber, Treated Eye (Brown-Pearce epithelioma [5]; [9]): 18 days and 15 days and 20 days | Weight of Eyes After Enucleation, Treated Eye (Brown-Pearce epithelioma [5]; [9]): 2.8 g and 3.2 g and 3.3 g | Day Tumor Destroyed Whole Eye, Treated Eye (Brown-Pearce epithelioma [5]; [9]): > 20 days and > 29 days | reduction in tumor growth (Brown-Pearce epithelioma [5]; absolute ethanol (so in the source), days 3 and 6): greatest reduction in tumor growth | Aver. wt. of eyes after enucleation, treated eye (Brown-Pearce epithelioma [5]; all eyes (Groups I and II)): 4.6 g | solubility in absolute ethanol ([6]; absolute ethanol as solvent for BCNU): excellent solvent for BCNU | solubility in sesame oil ([6]; sesame oil): fairly soluble | stability in sesame oil ([6]; sesame oil): relatively stable
